Measured values taken from patent US9795647B2, “Compositions and methods for modulating inflammatory potential” (New Chapter Inc., priority 2009, dated 2017).

Legend:
A549 cells = test: Proliferation of A549 nonsmall cell lung cancer cells (overexpress COX-2); type: cell-based, human; settings: A549 overexpress COX-2
From the text: The antitumor efficacy of specifically formulated fish oil 30 diets was studied in human lung cancer A549 xenograft (over expression of COX-2) and H1299 xenograft (lack of COX-2 expression).
FIG. 17 illustrates the relative effect of WholeMega and two commercial fish oil products to inhibit proliferation of human A549 nonsmall cell lung cancer cells (top figure) and human H1299 nonsmall cell lung cancer cells (bottom figure). A549 cells overexpress COX-2, as many cancer cells are known to do. […] The A549 cells over-express COX-2 which normally results in an over-expression/production of PGE2. When provided with an alternate substrate, however, such as fish oil EPA, the resulting product is PGE3 rather than PGE2. […] Clearly, at least one structural feature unique to the Wholemega composition contributes an additional anti-tumor effect. One possibility is that that other oils in Wholemega (omega-5, omega-7 and omega-9 oils), that are not present in the other two fish oils, contribute to an additional inhibitory effect on the growth of the cancer cells. Another possibility would be the relative fractions of certain oils to one another. Yet another possibility would be the herbal oil component, e.g. SCE rosemary and SCE oregano) contribute an added inhibitory effect on the growth of the cancer cells. […]

beta-cell = settings: 0.5 mmol/l, medium with 5.5, 11.1 or 33.3 mmol/l glucose, 4 days; cited from earlier work
Selenomonas artemidis = settings: only one of 45 compounds surveyed; cited from earlier work
gram-positive bacteria = settings: purified cPA (>99%); cited from earlier work

For `CC/C=C\C[C@H](O)/C=C/[C@H]1[C@H](O)CC(=O)[C@@H]1C/C=C\CCCC(=O)O` [PGE3], the “effect on proliferation of A549 cells” value (A549 cells) was “inhibits proliferation”.
For `CCCCCC/C=C\CCCCCCCC(=O)O` [palmitoleic acid], the “beta-cell DNA fragmentation” value (beta-cell) is listed as “did not affect”.
With `CCCCC[C@H](O)/C=C/[C@H]1[C@H](O)CC(=O)[C@@H]1C/C=C\CCCC(=O)O` [PGE2] the “effect on proliferation of A549 cells” value (A549 cells) was “slightly stimulates proliferation”.
In the case of `CCCCC=CCCCCCCCC(=O)O` [myristoleic acid, 9-tetradecenoic acid], the “inhibitory concentration towards S. artemidis” value (Selenomonas artemidis) is listed as under 100 micrograms/ml.
For `CCCCCCCCC/C=C\CCCCC(=O)O` [cPA, palmitoleic acid (C16:1delta6, cPA)], the “minimal inhibitory concentration (MIC)” value (gram-positive bacteria) is listed as 10 to 20 µg/mL.
